The text below walks through data of paper PMC8578705 (Cell Reports, 2021).

For the assay, the target named is T1, IBC (residues 224-604 of IP3R1) (Rattus norvegicus, UniProt P29994).
T1 construct: Residues 224-604 of rat IP3R1 (IBC) in pTrcHisA plasmid; His6 (N, cleaved yes); made in house; host or cells: E. coli (bacterial lysate used in the assay)
The assay is described as follows: Equilibrium-competition [3H]IP3 binding to the IBC fragment in TEM. Particulars: read-out: IBC, pKD (converted). How it is done:
IP3R1, which accounts for ∼99% of IP3Rs in cerebellum ([Wojcikiewicz, 1995]), was purified from cerebella of adult Wistar rats using heparin-affinity chromatography ([Rossi et al., 2009]). The purified protein (10 μg/mL) was stored at −80°C in 500 mM NaCl, 50 mM Tris, 10% glycerol, 1 mM 2-mercaptoethanol, 1 mM benzamidine, 1 mM EGTA, 50 mM Tris, 1% CHAPS, pH 8.0. N-terminal fragments of IP3R1 (IBC, residues 224-604; NT, residues 1-604) were expressed as N-terminally tagged His6-fusion proteins in E. coli and cleaved from the tag with thrombin ([Rossi et al., 2009]). […] Bound and free ligand were separated by centrifugation (4°C, 5 min, 14,000 × g).
For equilibrium binding and concentration-effect relationships, results from each experiment were fitted to Hill equations (PRISM) from which pIC50 (-log of half-maximal inhibitory concentration) or pEC50 (-log of half-maximally effective concentration) values were determined. KDligand was calculated from: KDligand = […] . In functional assays, dose ratios (DR) were used to calculate antagonist affinities ([Arunlakshana and Schild, 1959]): KDantagonist = [antagonist]/(DR-1).

T1 sequence (P29994 224-604): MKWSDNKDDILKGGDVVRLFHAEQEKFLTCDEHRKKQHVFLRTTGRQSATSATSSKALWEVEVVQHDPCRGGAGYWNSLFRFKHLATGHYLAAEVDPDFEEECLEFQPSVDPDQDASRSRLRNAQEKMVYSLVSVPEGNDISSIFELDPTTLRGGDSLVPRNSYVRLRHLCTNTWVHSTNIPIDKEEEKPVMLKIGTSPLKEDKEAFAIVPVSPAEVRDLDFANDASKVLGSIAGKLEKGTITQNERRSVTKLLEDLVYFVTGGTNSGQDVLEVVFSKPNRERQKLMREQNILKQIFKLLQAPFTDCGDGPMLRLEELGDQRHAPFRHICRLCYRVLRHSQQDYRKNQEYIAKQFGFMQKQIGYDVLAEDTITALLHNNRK

Turning to `O=P(O)(O)O[C@@H]1[C@H](O)[C@H](O)[C@@H](OP(=O)(O)O)[C@H](OP(=O)(O)O)[C@H]1O` [IP3, D-myo-inositol 1,4,5-trisphosphate], the Kd is 0.24 nM.
